Among the test systems are M19-MEL; XF498; RXF 631; DMS-114; DMS-273; SNB-78; HOP-18; DLD-1.
What all share (test): inhibition of tumour cell growth, NCI panel, 48 h

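Following 48 hours of exposure in 96-well plates, responses at five concentrations were used to interpolate endpoints linearly. The concentration for 50% growth inhibition is given as GI50.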 Active and inactive are the calls of the source. Rule as the data show it: active = GI50 up to about 1.1 µM and inactive = higher.

Turning to `COC(=O)C[C@H]1CCC2(OCCO2)[C@]1(C)C(=O)OC`, the GI50 in the assay on M19-MEL, in the assay with XF498, in the assay with RXF 631, in the assay on DMS-114, with DMS-273 and with SNB-78 was > 100 µM (inactive) in each case.
Regarding `CN(C)CCC(=O)/C=C\c1ccccc1`, the GI50 in the assay on M19-MEL is 19.7 µM (inactive); with XF498 it was 14.9 µM (inactive); in the assay on RXF 631 it was 18.1 µM (inactive); with HOP-18, 22.6 µM (inactive); in the assay with DMS-114, 18.2 µM (inactive); in the assay with DMS-273, 16.3 µM (inactive). The GI50 in the assay on SNB-78 was 15.5 µM (inactive); in the assay with DLD-1, 15.8 µM (inactive).
`COc1ccc(NC(=O)/C(Cc2nc3ccccc3nc2O)=N\O)c(OC)c1`: the GI50 in the assay with M19-MEL, in the assay on XF498, with RXF 631, with HOP-18, with DMS-114 and in the assay on SNB-78 was > 100 µM (inactive) throughout. The GI50 with DLD-1 was > 100 µM (inactive).
With `C[C@]12CC[C@H](OC(=O)Cc3ccc(N(CCCl)CCCl)cc3)CC1CC[C@@H]1C2CC[C@]2(C)NC(=O)CCC12` (some centres not stated), the GI50 was 14.3 µM (inactive) with M19-MEL; 13.6 µM (inactive) with XF498; 16 µM (inactive) with RXF 631; 16.7 µM (inactive) in the assay on HOP-18; 6.31 µM (inactive) with DMS-114; 5.64 µM (inactive) in the assay with DMS-273. The GI50 was 14.1 µM (inactive) in the assay on SNB-78 and 16.3 µM (inactive) in the assay with DLD-1.
As for `Cc1nc2sccn2c1C(=O)N/N=C1\SCC(=O)N1C`, the GI50 is > 100 µM (inactive) with M19-MEL; > 100 µM (inactive) in the assay on XF498; > 100 µM (inactive) in the assay on RXF 631; 26.3 µM (inactive) in the assay on HOP-18; > 100 µM (inactive) in the assay with DMS-114; > 100 µM (inactive) in the assay on DMS-273. Also, the GI50 in the assay on DLD-1 was > 100 µM (inactive).
For the molecule `O=C1CC2CCCC23CC2(CCN13)OCCO2` (configuration not stated), the GI50 in the assay on M19-MEL, with XF498, in the assay with RXF 631, in the assay on HOP-18, in the assay on DMS-114 and in the assay with DMS-273 was > 100 µM (inactive) throughout. The GI50 in the assay on SNB-78 and in the assay on DLD-1 was > 100 µM (inactive) in each case.
For `COc1ccc(C(=O)C2=NON3OC23C(=O)c2ccc(OC)cc2)cc1` (configuration not stated), the GI50 was 16.5 µM (inactive) in the assay with M19-MEL; 10 µM (inactive) in the assay with XF498; 15.1 µM (inactive) in the assay on RXF 631; 18.9 µM (inactive) in the assay on HOP-18; 5.96 µM (inactive) in the assay with DMS-114; 19.1 µM (inactive) in the assay on DMS-273. The GI50 with SNB-78 was 13 µM (inactive); with DLD-1, 7.28 µM (inactive).
In the case of `Cc1cc(C)c2[s+]snc2c1`, the GI50 with M19-MEL is > 100 µM (inactive); in the assay with XF498 it was 30 µM (inactive); in the assay on RXF 631 it was 96.6 µM (inactive); in the assay with HOP-18, 44.8 µM (inactive); in the assay with DMS-273 it was 47.1 µM (inactive); in the assay with SNB-78, 84.3 µM (inactive). In the assay on DLD-1, the GI50 is > 100 µM (inactive).
Take `CCOC1=C2C(C)(CCC3[C@@]4(C)C=CC(=O)C(C)(C)C4CC(O)[C@@]23C)C(c2ccoc2)C1=O` (some centres not stated): the GI50 in the assay with M19-MEL is 18.9 µM (inactive); in the assay on XF498 it was > 10 µM (inactive); in the assay on RXF 631, 17.9 µM (inactive); with HOP-18 it was 33.7 µM (inactive); with DMS-114 it was 15.6 µM (inactive); in the assay on DMS-273 it was 25.2 µM (inactive). In addition, the figures for the GI50 in the assay on SNB-78 and in the assay on DLD-1 were 38.5 µM (inactive) and 11.4 µM (inactive), respectively.
`COc1ccc(CCc2cc(OC)cc(OC)c2)cc1`: the GI50 with M19-MEL is 25.3 µM (inactive); with XF498 it was 16.7 µM (inactive); in the assay on RXF 631, 13.7 µM (inactive); with HOP-18, > 32.4 µM (inactive); in the assay on DMS-114, 3.9 µM (inactive); in the assay with DMS-273, 5.15 µM (inactive). The GI50 in the assay with SNB-78 was 51.4 µM (inactive); in the assay with DLD-1, 23.1 µM (inactive).
Take `CC[C@@]1(O)C(=O)OCc2c1cc1n(c2=O)Cc2cc3c(OC)cccc3nc2-1`: the GI50 was 0.056 µM (active) in the assay on M19-MEL; 0.0942 µM (active) with XF498; 0.0628 µM (active) with RXF 631; 0.0425 µM (active) with HOP-18; < 0.01 µM (active) with DMS-114; < 0.01 µM (active) in the assay on DMS-273. Also, the GI50 with DLD-1 was 0.27 µM (active).

Values taken from ChEMBL document CHEMBL1201862, “PubChem BioAssay data set” (2004).
